# Assay results as given in BindingDB's records for doi:10.1016/0196-9781(94)90118-x (Tulane University, 1994).
# Positions of bridges follow the written chain, without caps; N, C: chain ends. Non-standard residues stand in square brackets, D forms with d. Residues, ends and D or L forms follow the SMILES beside them. ξ: configuration not given here. 2Nal = N[C@@H](Cc1ccc2ccccc2c1)C(=O)O; d2Nal = N[C@H](Cc1ccc2ccccc2c1)C(=O)O; ξPhg = NC(C(=O)O)c1ccccc1; Abu = CC[C@H](N)C(=O)O
# Columns and labels:
# [1] = target: Somatostatin receptor type 2 (Rattus norvegicus, UniProt P30680)
# Chain of Somatostatin receptor type 2 (P30680 whole entry): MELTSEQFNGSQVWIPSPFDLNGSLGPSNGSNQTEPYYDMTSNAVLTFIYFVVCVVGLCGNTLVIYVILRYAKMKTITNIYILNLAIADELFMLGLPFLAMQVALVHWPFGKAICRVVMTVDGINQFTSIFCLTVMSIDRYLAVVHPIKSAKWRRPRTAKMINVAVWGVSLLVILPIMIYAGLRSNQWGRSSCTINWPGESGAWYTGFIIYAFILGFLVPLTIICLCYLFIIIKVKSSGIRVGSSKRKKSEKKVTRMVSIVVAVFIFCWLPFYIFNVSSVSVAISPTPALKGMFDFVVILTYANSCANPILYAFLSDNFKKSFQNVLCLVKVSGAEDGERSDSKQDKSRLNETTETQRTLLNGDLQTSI
# [2] = target: T1, Somatostatin receptor type 5 (Rattus norvegicus, UniProt P30938)
# T1 sequence (P30938 whole entry): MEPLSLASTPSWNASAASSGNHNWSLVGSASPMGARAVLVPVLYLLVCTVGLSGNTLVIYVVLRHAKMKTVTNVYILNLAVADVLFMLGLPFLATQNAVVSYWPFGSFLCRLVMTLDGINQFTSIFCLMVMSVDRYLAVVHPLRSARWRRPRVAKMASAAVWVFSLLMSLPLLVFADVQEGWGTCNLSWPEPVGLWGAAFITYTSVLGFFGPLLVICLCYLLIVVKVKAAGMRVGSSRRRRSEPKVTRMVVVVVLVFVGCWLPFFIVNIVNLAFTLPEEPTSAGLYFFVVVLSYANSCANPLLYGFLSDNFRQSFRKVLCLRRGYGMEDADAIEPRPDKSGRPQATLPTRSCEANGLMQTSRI
# [3] = target: Somatostatin receptor type 3 (Rattus norvegicus, UniProt P30936)
# Chain of Somatostatin receptor type 3 (P30936 whole entry): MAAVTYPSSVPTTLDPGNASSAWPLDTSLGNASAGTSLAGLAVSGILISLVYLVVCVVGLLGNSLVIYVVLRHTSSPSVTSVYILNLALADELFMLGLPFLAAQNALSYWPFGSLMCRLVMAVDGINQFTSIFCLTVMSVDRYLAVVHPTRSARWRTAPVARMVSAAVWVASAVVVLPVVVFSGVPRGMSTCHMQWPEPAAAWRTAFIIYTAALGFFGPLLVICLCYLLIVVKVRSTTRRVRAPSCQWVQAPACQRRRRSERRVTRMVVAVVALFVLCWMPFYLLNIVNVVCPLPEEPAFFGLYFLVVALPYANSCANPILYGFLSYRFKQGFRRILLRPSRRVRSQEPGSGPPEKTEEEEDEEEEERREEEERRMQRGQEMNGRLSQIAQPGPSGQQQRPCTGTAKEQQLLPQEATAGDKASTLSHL
# [4] = target: Somatostatin receptor type 1 (Rattus norvegicus, UniProt P28646)
# Chain of Somatostatin receptor type 1 (P28646 whole entry): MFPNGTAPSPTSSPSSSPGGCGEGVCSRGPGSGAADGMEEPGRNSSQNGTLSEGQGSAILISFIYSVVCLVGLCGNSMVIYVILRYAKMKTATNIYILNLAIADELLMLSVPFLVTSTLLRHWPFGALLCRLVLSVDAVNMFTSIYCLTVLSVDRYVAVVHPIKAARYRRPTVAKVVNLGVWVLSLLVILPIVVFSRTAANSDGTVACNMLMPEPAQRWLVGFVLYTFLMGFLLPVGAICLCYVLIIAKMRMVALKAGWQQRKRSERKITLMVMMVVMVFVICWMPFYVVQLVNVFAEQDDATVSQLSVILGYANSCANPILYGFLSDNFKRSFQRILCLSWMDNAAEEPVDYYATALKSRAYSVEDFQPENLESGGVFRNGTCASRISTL
# [5] = target: Somatostatin receptor type 4 (Rattus norvegicus, UniProt P30937)
# Chain of Somatostatin receptor type 4 (P30937 whole entry): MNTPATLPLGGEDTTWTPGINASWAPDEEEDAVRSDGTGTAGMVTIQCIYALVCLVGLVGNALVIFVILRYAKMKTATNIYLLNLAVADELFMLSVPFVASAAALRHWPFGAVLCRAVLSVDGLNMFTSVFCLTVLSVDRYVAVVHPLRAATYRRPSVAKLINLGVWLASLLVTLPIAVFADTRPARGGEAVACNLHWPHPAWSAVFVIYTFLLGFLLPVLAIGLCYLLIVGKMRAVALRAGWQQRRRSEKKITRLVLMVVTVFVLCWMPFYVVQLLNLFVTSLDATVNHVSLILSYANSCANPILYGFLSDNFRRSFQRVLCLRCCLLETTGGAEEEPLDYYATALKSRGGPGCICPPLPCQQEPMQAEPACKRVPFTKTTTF
Structure (SMILES),Ki [1] [nM],Ki [2] [nM],Ki [3] [nM],Ki [4] [nM],Ki [5] [nM]
CC(C)[C@@H]1NC(=O)[C@H](CCCCN)NC(=O)[C@@H](Cc2c[nH]c3ccccc23)NC(=O)[C@H](Cc2ccc(O)cc2)NC(=O)[C@@H](NC(=O)[C@H](N)Cc2ccc3ccccc3c2)CSSC[C@@H](C(=O)N[C@H](C(N)=O)[C@@H](C)O)NC1=O [D-Nal-Cys-Tyr-D-Trp-Lys-Val-Cys-Thr-NH2],1.6,–,4.9,> 10000,–
CC(C)[C@H](NC(=O)[C@H](CCCCN)NC(=O)[C@H](Cc1c[nH]c2ccccc12)NC(=O)[C@H](Cc1ccc(O)cc1)NC(=O)[C@@H](N)CS)C(=O)N[C@@H](CS)C(=O)N[C@H](C(N)=O)[C@@H](C)O [D-Nal-Cys-Tyr-D-Trp-Lys-Val-Cys-Thr-NH2] (H-CYWKVCT-NH2),–,1000,–,–,–
CC[C@@H]1NC(=O)[C@H](CCCCN)NC(=O)[C@@H](Cc2c[nH]c3ccccc23)NC(=O)[C@H](Cc2ccc(O)cc2)NC(=O)[C@@H](NC(=O)[C@H](N)Cc2ccccc2)CSSC[C@@H](C(=O)N[C@@H](Cc2ccc3ccccc3c2)C(N)=O)NC1=O [D-Phe-Cys-Tyr-D-Trp-Lys-Abu-Cys-Nal-NH] (H-[dF]CY[dW]K[Abu]C[2Nal]-NH2; disulfide 2-7),0.01,–,11,> 10000,–
CC(C)[C@H](NC(=O)[C@H](CCCCN)NC(=O)[C@H](Cc1c[nH]c2ccccc12)NC(=O)[C@H](Cc1ccc(O)cc1)NC(=O)[C@H](Cc1ccccc1)NC(=O)C(N)c1ccccc1)C(=O)N[C@@H](Cc1ccccc1)C(=O)N[C@H](C(N)=O)[C@@H](C)O (stereo partly drawn) [D-Phe-Phe-Tyr-D-Trp-Lys-Val-Phe-Thr-NH2] (H-[ξPhg]FYWKVFT-NH2),–,77,–,–,–

# Next, values leading:
Ki [1] [nM],Ki [2] [nM],Ki [3] [nM],Ki [4] [nM],Ki [5] [nM],Structure (SMILES)
32,18,0.42,–,–,C[C@@H](O)[C@H](NC(=O)[C@H](Cc1ccccc1)NC(=O)[C@@H](NC(=O)[C@H](CCCCN)NC(=O)[C@@H](Cc1c[nH]c2ccccc12)NC(=O)[C@H](Cc1ccccc1)NC(=O)[C@H](Cc1ccccc1)NC(=O)[C@H](N)Cc1ccccc1)[C@@H](C)O)C(N)=O [CAS_133073-82-2] (H-[dF]FF[dW]KTFT-NH2)
1000,158,0.02,> 10000,43,CC(C)[C@H](NC(=O)[C@H](CCCCN)NC(=O)[C@@H](Cc1c[nH]c2ccccc12)NC(=O)[C@H](Cc1ccc(O)cc1)NC(=O)[C@H](Cc1ccccc1)NC(=O)[C@H](N)Cc1ccccc1)C(=O)N[C@@H](Cc1ccccc1)C(=O)N[C@H](Cc1ccc2ccccc2c1)C(N)=O [CAS_150155-61-6] (H-[dF]FY[dW]KVF[d2Nal]-NH2)
46,–,0.03,> 10000,1.2,CC(C)[C@H](NC(=O)[C@H](CCCCN)NC(=O)[C@@H](Cc1c[nH]c2ccccc12)NC(=O)[C@H](Cc1ccc(O)cc1)NC(=O)[C@H](Cc1ccccc1)NC(=O)[C@H](N)Cc1ccccc1)C(=O)N[C@@H](Cc1ccccc1)C(=O)N[C@H](C(N)=O)[C@@H](C)O [D-Phe-Phe-Tyr-D-Trp-Lys-Val-Phe-Thr-NH2] (H-[dF]FY[dW]KVFT-NH2)
